From patent US8846686B2, “Compounds useful as inhibitors of ATR kinase” (Vertex Pharmaceuticals Incorporated, priority 2011, dated 2014) come the findings set out here.

Data set [1] concerns HCT116 colorectal cancer cells. As to the kind of experiment: Single agent HCT116 activity, 96 h cell viability (MTS) assay. In kind it is cell-based. The note with it: Homo sapiens, HCT-116; 96 h MTS cell viability; read-out: Single agent HT116 IC50. Here is the method:
Compounds can be screened for single agent activity against HCT116 colorectal cancer cells using a 96 h cell viability (MTS) assay. HCT116 are plated at 470 cells per well in 96-well polystyrene plates (Costar 3596) in 150 μl of McCoy's 5A media (Sigma M8403) supplemented with 10% foetal bovine serum (JRH Biosciences 12003), Penicillin/Streptomycin solution diluted 1:100 (Sigma P7539), and 2 mM L-glumtamine (Sigma G7513), and allowed to adhere overnight at 37° C. in 5% CO2. Compounds are then added to the cell media in 2-fold serial dilutions from a top final concentration of 10 μM as a full matrix of concentrations in a final cell volume of 200 μl, and the cells are then incubated at 37° C. in 5% CO2. After 96 h, 40 μl of MTS reagent (Promega G358a) is added to each well and the cells are incubated for 1 h at 37° C. in 5% CO2. Finally, absorbance is measured at 490 nm using a SpectraMax Plus 384 reader (Molecular Devices) and IC50 values can be calculated.

The target of data set [2] is T1, intracellular ATR (Homo sapiens, UniProt Q13535).
T1 construct: endogenous in cells; host or cells: HT29
T1 sequence (Q13535 whole entry): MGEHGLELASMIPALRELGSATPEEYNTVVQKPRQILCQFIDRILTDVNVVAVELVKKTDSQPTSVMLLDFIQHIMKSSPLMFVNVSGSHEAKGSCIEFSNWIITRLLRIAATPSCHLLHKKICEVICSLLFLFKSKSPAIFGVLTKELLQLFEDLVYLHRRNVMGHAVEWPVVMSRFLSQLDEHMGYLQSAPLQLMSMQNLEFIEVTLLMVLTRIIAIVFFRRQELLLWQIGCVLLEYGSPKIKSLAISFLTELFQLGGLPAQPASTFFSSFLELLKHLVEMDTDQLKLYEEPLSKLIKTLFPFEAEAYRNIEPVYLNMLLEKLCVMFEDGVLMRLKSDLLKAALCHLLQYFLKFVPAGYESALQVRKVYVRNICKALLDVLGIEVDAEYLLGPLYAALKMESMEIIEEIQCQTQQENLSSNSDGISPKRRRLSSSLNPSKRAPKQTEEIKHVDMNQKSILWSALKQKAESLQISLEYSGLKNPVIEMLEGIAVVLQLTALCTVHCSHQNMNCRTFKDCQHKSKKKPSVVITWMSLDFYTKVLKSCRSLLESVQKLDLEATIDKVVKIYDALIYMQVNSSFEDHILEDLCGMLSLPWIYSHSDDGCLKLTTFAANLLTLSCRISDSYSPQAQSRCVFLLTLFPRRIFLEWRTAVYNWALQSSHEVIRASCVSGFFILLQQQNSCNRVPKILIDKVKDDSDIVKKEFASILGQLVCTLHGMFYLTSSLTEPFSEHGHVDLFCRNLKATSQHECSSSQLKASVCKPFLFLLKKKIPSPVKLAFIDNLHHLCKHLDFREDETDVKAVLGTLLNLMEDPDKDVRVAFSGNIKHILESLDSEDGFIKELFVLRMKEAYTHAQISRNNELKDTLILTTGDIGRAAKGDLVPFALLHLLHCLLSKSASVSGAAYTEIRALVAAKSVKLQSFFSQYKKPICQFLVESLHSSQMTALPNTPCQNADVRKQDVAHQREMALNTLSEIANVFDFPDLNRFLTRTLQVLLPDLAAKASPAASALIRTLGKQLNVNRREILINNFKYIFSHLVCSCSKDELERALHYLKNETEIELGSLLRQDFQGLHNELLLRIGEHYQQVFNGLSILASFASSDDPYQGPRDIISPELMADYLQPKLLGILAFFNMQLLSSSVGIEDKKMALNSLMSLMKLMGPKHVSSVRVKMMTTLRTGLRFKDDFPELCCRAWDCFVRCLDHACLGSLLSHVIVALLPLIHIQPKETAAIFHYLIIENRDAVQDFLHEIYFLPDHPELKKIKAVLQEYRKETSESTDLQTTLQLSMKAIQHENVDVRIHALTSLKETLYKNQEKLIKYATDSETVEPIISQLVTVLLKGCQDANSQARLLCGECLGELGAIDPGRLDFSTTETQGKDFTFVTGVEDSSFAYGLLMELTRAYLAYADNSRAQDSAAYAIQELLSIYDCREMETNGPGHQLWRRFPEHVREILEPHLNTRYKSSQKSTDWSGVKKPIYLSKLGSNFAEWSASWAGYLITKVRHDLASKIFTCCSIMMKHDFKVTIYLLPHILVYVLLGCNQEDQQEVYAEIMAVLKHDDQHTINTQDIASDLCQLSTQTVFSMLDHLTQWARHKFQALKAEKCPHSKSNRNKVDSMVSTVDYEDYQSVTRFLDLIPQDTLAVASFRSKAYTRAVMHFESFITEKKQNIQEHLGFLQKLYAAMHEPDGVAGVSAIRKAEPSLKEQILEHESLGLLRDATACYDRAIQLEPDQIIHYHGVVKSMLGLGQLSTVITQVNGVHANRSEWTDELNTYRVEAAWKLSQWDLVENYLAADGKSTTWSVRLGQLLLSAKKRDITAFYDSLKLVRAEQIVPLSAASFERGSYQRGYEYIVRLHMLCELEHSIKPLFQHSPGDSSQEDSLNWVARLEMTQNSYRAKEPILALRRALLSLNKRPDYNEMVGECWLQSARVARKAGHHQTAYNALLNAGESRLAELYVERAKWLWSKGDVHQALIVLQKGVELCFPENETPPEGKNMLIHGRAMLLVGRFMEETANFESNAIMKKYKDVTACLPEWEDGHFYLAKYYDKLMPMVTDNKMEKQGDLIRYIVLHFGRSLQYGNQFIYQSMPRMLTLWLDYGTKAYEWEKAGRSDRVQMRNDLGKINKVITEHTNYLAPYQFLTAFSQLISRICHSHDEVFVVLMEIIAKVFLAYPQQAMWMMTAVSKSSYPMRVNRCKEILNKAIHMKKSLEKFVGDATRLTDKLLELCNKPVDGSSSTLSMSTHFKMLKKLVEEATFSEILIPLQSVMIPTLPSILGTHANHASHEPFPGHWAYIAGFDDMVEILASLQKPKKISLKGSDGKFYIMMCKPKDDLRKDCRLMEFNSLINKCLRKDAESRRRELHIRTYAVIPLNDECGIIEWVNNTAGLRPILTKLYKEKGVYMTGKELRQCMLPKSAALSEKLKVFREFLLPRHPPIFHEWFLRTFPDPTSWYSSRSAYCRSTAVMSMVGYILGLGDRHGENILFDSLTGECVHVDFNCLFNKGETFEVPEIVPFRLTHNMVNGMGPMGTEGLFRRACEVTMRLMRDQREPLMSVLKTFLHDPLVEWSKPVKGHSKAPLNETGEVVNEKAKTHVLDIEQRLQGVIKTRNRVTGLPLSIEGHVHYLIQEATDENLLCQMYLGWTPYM
T1 sequence (Q8WXE1 whole entry partner): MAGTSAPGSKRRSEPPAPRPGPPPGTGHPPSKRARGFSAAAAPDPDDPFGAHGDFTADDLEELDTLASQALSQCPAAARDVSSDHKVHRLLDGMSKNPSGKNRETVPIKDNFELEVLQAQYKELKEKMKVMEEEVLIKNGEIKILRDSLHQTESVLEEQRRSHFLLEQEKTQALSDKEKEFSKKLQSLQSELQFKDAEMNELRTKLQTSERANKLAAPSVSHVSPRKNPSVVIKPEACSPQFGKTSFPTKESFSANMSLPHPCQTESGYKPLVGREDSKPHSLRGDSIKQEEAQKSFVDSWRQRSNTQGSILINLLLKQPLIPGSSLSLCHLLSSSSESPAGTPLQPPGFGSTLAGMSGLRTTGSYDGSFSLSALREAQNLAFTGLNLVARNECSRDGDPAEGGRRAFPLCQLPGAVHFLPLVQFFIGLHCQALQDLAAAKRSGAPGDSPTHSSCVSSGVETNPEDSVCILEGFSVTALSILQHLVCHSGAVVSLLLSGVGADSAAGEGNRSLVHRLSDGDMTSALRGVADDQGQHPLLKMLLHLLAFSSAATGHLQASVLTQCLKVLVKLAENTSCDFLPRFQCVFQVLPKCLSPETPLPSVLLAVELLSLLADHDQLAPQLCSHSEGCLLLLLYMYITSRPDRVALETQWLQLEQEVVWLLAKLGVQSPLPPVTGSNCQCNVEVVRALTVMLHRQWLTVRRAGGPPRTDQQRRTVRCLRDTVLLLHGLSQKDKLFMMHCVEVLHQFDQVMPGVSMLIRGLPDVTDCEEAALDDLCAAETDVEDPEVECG
In words: Cellular ATR inhibition assay (H2AX phosphorylation in hydroxyurea treated HT29 cells). The conditions noted are these: 2 mM hydroxyurea, phosphorylated H2AX-positive nuclei. In kind it is cell-based. Here is the method:
Compounds can be screened for their ability to inhibit intracellular ATR using an immunofluorescence microscopy assay to detect phosphorylation of the ATR substrate histone H2AX in hydroxyurea treated cells. HT29 cells are plated at 14,000 cells per well in 96-well black imaging plates (BD 353219) in McCoy's 5A media (Sigma M8403) supplemented with 10% foetal bovine serum (JRH Biosciences 12003), Penicillin/Streptomycin solution diluted 1:100 (Sigma P7539), and 2 mM L-glumtamine (Sigma G7513), and allowed to adhere overnight at 37° C. in 5% CO2. Compounds are then added to the cell media from a final concentration of 25 μM in 3-fold serial dilutions and the cells are incubated at 37° C. in 5% CO2. After 15 min, hydroxyurea (Sigma H8627) is added to a final concentration of 2 mM.
After 45 min of treatment with hydroxyurea, the cells are washed in PBS, fixed for 10 min in 4% formaldehyde diluted in PBS (Polysciences Inc 18814), washed in 0.2% Tween-20 in PBS (wash buffer), and permeabilised for 10 min in 0.5% Triton X-100 in PBS, all at room temperature. The cells are then washed once in wash buffer and blocked for 30 min at room temperature in 10% goat serum (Sigma G9023) diluted in wash buffer (block buffer). […]
Cells are imaged for Alexa Fluor 488 and Hoechst intensity using the BD Pathway 855 Bioimager and Attovision software (BD Biosciences, Version 1.6/855) to quantify phosphorylated H2AX Ser139 and DNA staining, respectively. The percentage of phosphorylated H2AX-positive nuclei in a montage of 9 images at 20× magnification is then calculated for each well using BD Image Data Explorer software (BD Biosciences Version 2.2.15). […] The percentage of H2AX positive nuclei is finally plotted against concentration for each compound and IC50s for intracellular ATR inhibition are determined using Prism software (GraphPad Prism version 3.0cx for Macintosh, GraphPad Software, San Diego Calif., USA).

Data set [3] has as its target T2, full-length ATR (Homo sapiens, UniProt Q13535).
T2 construct: Assays are carried out at 25° C. in the presence of 5 nM full-length ATR
As to the kind of experiment: ATR inhibition assay (radioactive-phosphate incorporation). It is filed as biochemical. The note with it: Ki(app), 5 nM full-length ATR, 10 μM ATP. The procedure:
Compounds can be screened for their ability to inhibit ATR kinase using a radioactive-phosphate incorporation assay. Assays are carried out in a mixture of 50 mM Tris/HCl (pH 7.5), 10 mM MgCl2 and 1 mM DTT. Final substrate concentrations are 10 μM [γ-33P]ATP (3 mCi ^33P ATP/mmol ATP, Perkin Elmer) and 800 μM target peptide (ASELPASQPQPFSAKKK (SEQUENCE ID NO: 1)).
Assays are carried out at 25° C. in the presence of 5 nM full-length ATR. An assay stock buffer solution is prepared containing all of the reagents listed above, with the exception of ATP and the test compound of interest. 13.5 μL of the stock solution is placed in a 96 well plate followed by addition of 2 μL of DMSO stock containing serial dilutions of the test compound (typically starting from a final concentration of 15 μM with 3-fold serial dilutions) in duplicate (final DMSO concentration 7%). The plate is pre-incubated for 10 minutes at 25° C. and the reaction initiated by addition of 15 μL [γ-33P]ATP (final concentration 10 μM).
The reaction is stopped after 24 hours by the addition of 30 μL 0.1M phosphoric acid containing 2 mM ATP. A multiscreen phosphocellulose filter 96-well plate (Millipore, Cat no. MAPHN0B50) is pretreated with 100 μL 0.2M phosphoric acid prior to the addition of 45 μL of the stopped assay mixture. The plate is washed with 5×200 μL 0.2M phosphoric acid. After drying, 100 μL Optiphase ‘SuperMix’ liquid scintillation cocktail (Perkin Elmer) is added to the well prior to scintillation counting (1450 Microbeta Liquid Scintillation Counter, Wallac).
After removing mean background values for all of the data points, Ki(app) data are calculated from non-linear regression analysis of the initial rate data using the Prism software package (GraphPad Prism version 3.0cx for Macintosh, GraphPad Software, San Diego Calif., USA).

Data set [4] deals with HCT116 colorectal cancer cells. As to the kind of experiment: Cisplatin sensitization assay, 96 h cell viability (MTS). It is filed as cell-based. The note with it: concentration of compound required to reduce the IC50 of Cisplatin alone by at least 3-fold; HCT116, 96 h. The procedure: Compounds can be screened for their ability to sensitize HCT116 colorectal cancer cells to Cisplatin using a 96 h cell viability (MTS) assay. […] Compounds and Cisplatin are then both added simultaneously to the cell media in 2-fold serial dilutions from a top final concentration of 10 μM as a full matrix of concentrations in a final cell volume of 200 μl, and the cells are then incubated at 37° C. in 5% CO2. After 96 h, 40 μl of MTS reagent (Promega G358a) is added to each well and the cells are incubated for 1 h at 37° C. in 5% CO2. Finally, absorbance is measured at 490 nm using a SpectraMax Plus 384 reader (Molecular Devices) and the concentration of compound required to reduce the IC50 of Cisplatin alone by at least 3-fold (to 1 decimal place) can be reported.

The subject of data set [5] is primary NSCLC model. As to the kind of experiment: Primary non-small cell lung cancer (NSCLC) model with cisplatin as the DNA damaging agent. In kind it is in vivo, mouse. The text has this:
(§1) T/C=tumour size of treatment group compared with control group

For data set [6], the system named is Colo205 model. As to the kind of experiment: COLO205 model with irinotecan as the DNA damaging agent. In kind it is in vivo, mouse.
From the text: as §1

Data set [7] is described as follows: Pharmacokinetics (noncompartmental, blood or plasma). The note with it: in vivo, intravenous (IV) dosing. The text has this:
Noncompartmental pharmacokinetic parameters can be analyzed using Watson Bioanalytical LIMS (Version 7.4; Thermo Fisher Scientific) from either the blood or plasma samples. The following parameters are estimated following intravenous (IV) dosing; terminal elimination half-life (T1/2=ln(2)/λz, where λz is the first order rate constant associated with the terminal (log-linear) portion of the curve. The area under the curve (AUClast=area under the curve from the time of dosing to the last measurable concentration). The area under the curve extrapolated to infinity (AUC0-∞=AUClast+Clast/λz). The clearance (Cl; Cl=DoseIV/AUC0-∞).
The area under the first moment curve (AUMClast=area under the concentration times time versus time curve from the time of dosing to the last measurable concentration). The area under the first moment curve extrapolated to infinity (AUMC0-∞=AUMClast+Clast×t/λz+Clast/λz^2). The mean residence time (MRT=AUMC0-∞/AUC0-∞) and the steady state volume of distribution (Vdss=MRT×Cl).
Clearance and volume of distribution can also be obtained using methods known to one of skill in the art (see e.g., Handbook of Essential Pharmacokinetics, Pharmacodynamics and Drug Metabolism for Industrial Scientists, Younggil Kwon, pp 18-28 (Non-compartmental Approach)).

Data set [8] can be described thus: Mouse PO/PK in tumor (FIG. 6). In kind it is in vivo. The conditions noted are these: mouse grafted with tumors, compared with Compound P-110. The text has this: FIG. 6: Mouse PO/PK in tumor

T2 sequence (Q13535 whole entry): as the sequence (Q13535 whole entry) above

As a reminder, the IC50 is the concentration at which inhibition is half-maximal. For `CC(C)S(=O)(=O)c1ccc(-c2cnc(N)c(-c3cc(-c4ccc(CN[C@H]5CCOC5)cc4)no3)n2)cc1` [P-110 (S), reference compound], the IC50 turned out to be 280 nM in data set [1] and 46 nM in data set [2]. In data set [3], the Ki is 0.26 nM. The “Cisplatin sensitization” value in data set [4] came out at 156 nM.
As to `CC(C)S(=O)(=O)c1ccc(-c2cnc(N)c(-c3cc(-c4ccc(CN[C@H]5CCOC5)cc4)no3)n2)cc1` [Compound P-110, reference compound], the Sensitisation entry in data set [5] (same model (cisplatin), compound 30 mpk bid (on/1 day off)) is reported as “no sensitisation”. Moreover, in data set [6] (same model (irinotecan), compound 45 mg/kg twice a day (bid)), the Sensitization result was “no sensitization”.
By clearance is commonly meant the rate of elimination divided by the concentration. Read a high clearance as efficient removal. For orientation: half-life means the time needed for the level to fall by half in the phase considered. In data set [7], `CC(C)S(=O)(=O)c1ccc(-c2cnc(N)c(-c3cc(-c4ccc(CN[C@@H]5CCOC5)cc4)no3)n2)cc1` [P-110 (R), reference compound] showed a clearance of 12.7 mL/min/kg. This compound showed a half-life in data set [7] of 2.7 h. Further, the IC50 was 205 nM in data set [1] and 54 nM in data set [2]. Further, in data set [3], the Ki was found to be 0.29 nM. Also, the “Cisplatin sensitization” value in data set [4] is reported as 78 nM.
For `[2H]C([2H])([2H])C([2H])(C([2H])([2H])[2H])S(=O)(=O)c1ccc(-c2cnc(N)c(-c3cc(-c4ccc(CNC5CCOCC5)cc4)no3)n2)cc1` [Compound II-2, 5-[4-[1,2,2,2-tetradeuterio-1-(trideuteriomethyl)ethyl]sulfonylphenyl]-3-[3-[4-[(tetrahydropyran-4-ylamino)methyl]phenyl]isoxazol-5-yl]pyrazin-2-amine], the IC50 in data set [1] is 59 nM. Besides, the Ki in data set [3] amounted to 0.105 nM. The “Cisplatin sensitization” value in data set [4] is listed as 39 nM.
Turning to `CC(C)S(=O)(=O)c1ccc(-c2cnc(N)c(-c3cc(-c4ccc(CNC5CCOCC5)cc4)no3)n2)cc1` [Compound I-1], the Effect on tumors result in data set [5] (cisplatin 3 mg/kg, compound 30 mg/kg uid q2d) was “marked regression of tumors”; in data set [6] (irinotecan 20 mg/kg, compound orally as a solution 40 mg/kg, PO qd3, five cycles), “marked regression of tumors”. The “% T/C (tumour size of treatment group compared with control group)” value in data set [5] (day 20, cisplatin 3 mg/kg, compound 30 mg/kg uid q2d) is given as 1.7%; in data set [6] (day 13, irinotecan 20 mg/kg, compound 40 mg/kg PO qd3 of a four-day cycle, five cycles), 10.9%. Further, in data set [8], the “Oral exposure in tumors” value was “created oral exposure in tumors compared with Compound P-110”. Besides, the clearance in data set [7] came to 7.1 mL/min/kg. In data set [7], this compound had a half-life of 4.7 h. The Vd in data set [7] (read-out: Vss) was 2.8 L/kg. The values for the IC50 in data set [1] and in data set [2] were 83 nM and 13 nM, respectively. The Ki in data set [3] is 0.14 nM. In addition, the “Cisplatin sensitization” value in data set [4] was found to be 39 nM.
